# Experimental data published in patent publication US20250136594A1 (Tango Therapeutics, Inc., priority 2022, published 2025).
# What was measured:
# [1] = tested on: HAP1 MTAP-deleted cell line; experiment: Viability assay, HAP1 MTAP-deleted cell line; format: cell-based; conditions: Homo sapiens; viability assay, HAP1 MTAP-deleted cell line; read-out: Hap1 MTAP deleted viability IC50
# [2] = tested on: SDMA in HAP1 MTAP-intact cell line (PRMT5 inhibition); experiment: SDMA in-cell western assay, HAP1 MTAP-intact cell line; conditions: Homo sapiens, HAP1, read-out: Hap1 MTAP intact IC50
# [3] = tested on: SDMA in HAP1 MTAP-deleted (MTAP-null) cell line (PRMT5 inhibition); experiment: SDMA in-cell western assay, HAP1 MTAP-deleted cell line; conditions: for IC50 / IC90: Homo sapiens; for IC50: HAP1, read-out: Hap1 MTAP deleted IC50; for IC90: HAP1, read-out: Hap1 MTAP deleted IC90; for Hap1 MTAP intact/deleted ratio: ratio of SDMA IC50 in HAP1 MTAP-intact to HAP1 MTAP-deleted cell line
SMILES,IC50 [2] [nM],IC50 [3] [nM],IC90 [3] [nM],IC50 [1] [nM],Hap1 MTAP intact/deleted ratio [3]
"Nc1ncc(NC(=O)C(=O)N(Cc2cc(F)cc(F)c2)Cc2cc(F)cc(F)c2)c2[nH]ncc12 [Compound 2, N-(4-amino-1H-pyrazolo[4,3-c]pyridin-7-yl)-N′,N′-bis[(3,5-difluorophenyl)methyl]oxamide]",> 50,5 to 50,> 125,100 to 1000,A (IC50 ratio greater than or equal to 30 fold)
"Nc1ncc(NC(=O)C(=O)N(Cc2ccccc2)Cc2ccccc2C(F)(F)F)c2[nH]ncc12 [Compound 95, N-(4-amino-1H-pyrazolo[4,3-c]pyridin-7-yl)-N′-benzyl-N′-[[2-(trifluoromethyl)phenyl]methyl]oxamide]",< 5,< 5,< 75,< 100,C (IC50 ratio of less than 15 fold)
"Nc1ncc(NC(=O)C(=O)N(Cc2ccccc2)Cc2ccccc2Cl)c2[nH]ncc12 [Compound 87, N-(4-amino-1H-pyrazolo[4,3-c]pyridin-7-yl)-N′-benzyl-N′-[(2-chlorophenyl)methyl]oxamide]",5 to 50,< 5,< 75,< 100,B (IC50 ratio greater than or equal to 15 fold but lower than 30 fold)
"Nc1ncc(NC(=O)C(=O)N(Cc2ccccc2)Cc2cccnc2)c2[nH]ncc12 [Compound 29, N-(4-amino-1H-pyrazolo[4,3-c]pyridin-7-yl)-N′-benzyl-N′-(3-pyridylmethyl)oxamide]",> 50,< 5,< 75,< 100,A (IC50 ratio greater than or equal to 30 fold)
"CC(c1ccc(C(F)(F)F)cc1)N(C(=O)C(=O)Nc1cnc(N)c2cn[nH]c12)C1CCC1 (stereo not drawn) [Compound 192, N-(4-Amino-1H-pyrazolo[4,3-c]pyridin-7-yl)-N′-cyclobutyl-N′-[1-[4-(trifluoromethyl)phenyl]ethyl]oxamide]",5 to 50,< 5,< 75,< 100,B (IC50 ratio greater than or equal to 15 fold but lower than 30 fold)
"Cc1cccc(CN(Cc2ccccn2)C(=O)C(=O)Nc2cnc(N)c3cn[nH]c23)c1 [Compound 52, N-(4-amino-1H-pyrazolo[4,3-c]pyridin-7-yl)-N′-(m-tolylmethyl)-N′-(2-pyridylmethyl)oxamide]",5 to 50,< 5,< 75,< 100,B (IC50 ratio greater than or equal to 15 fold but lower than 30 fold)
"Nc1ncc(NC(=O)C(=O)N(Cc2ccccn2)Cc2ccc(F)cc2Cl)c2[nH]ncc12 [Compound 77, N-(4-amino-1H-pyrazolo[4,3-c]pyridin-7-yl)-N′-[(2-chloro-4-fluoro-phenyl)methyl]-N′-(2-pyridylmethyl)oxamide]",5 to 50,< 5,< 75,< 100,B (IC50 ratio greater than or equal to 15 fold but lower than 30 fold)
"CC1CCC(N(Cc2ccc(C(F)(F)F)cn2)C(=O)C(=O)Nc2ccn3ccnc3c2)c2ccccc21 (stereo not drawn) [Compound 12, N-imidazo[1,2-a]pyridin-7-yl-N′-(4-methyltetralin-1-yl)-N′-[[5-(trifluoromethyl)-2-pyridyl]methyl]oxamide]",> 50,5 to 50,> 125,100 to 1000,C (IC50 ratio of less than 15 fold)
"CCc1cc(NC(=O)C(=O)N(Cc2ccc(C(F)(F)F)cn2)[C@@H]2CCc3ccccc32)cnc1N [Compound 36, (R)-N1-(6-amino-5-ethylpyridin-3-yl)-N2-(2,3-dihydro-1H-inden-1-yl)-N2-((5-(trifluoromethyl)pyridin-2-yl)methyl)oxalamide]",> 50,5 to 50,75 to 125,< 100,A (IC50 ratio greater than or equal to 30 fold)
"CC1CCC(N(Cc2ccc(C(F)(F)F)cn2)C(=O)C(=O)Nc2cnc(N)c3cn[nH]c23)c2ccccc21 (stereo not drawn) [Compound 3, N1-(4-amino-1H-pyrazolo[4,3-c]pyridin-7-yl)-N^2-(4-methyl-1,2,3,4-tetrahydronaphthalen-1-yl)-N^2-((5-(trifluoromethyl)pyridin-2-yl)methyl)oxalamide]",5 to 50,5 to 50,< 75,< 100,C (IC50 ratio of less than 15 fold)

# More lines, main results first:
IC50 [2] [nM],IC50 [3] [nM],IC90 [3] [nM],SMILES,IC50 [1] [nM],Hap1 MTAP intact/deleted ratio [3]
5 to 50,5 to 50,75 to 125,"Nc1ncc(NC(=O)C(=O)N(Cc2ccc(C(F)(F)F)cn2)Cc2ccccc2C(F)(F)F)c2[nH]ncc12 [Compound 163, N-(4-amino-1H-pyrazolo[4,3-c]pyridin-7-yl)-N′-[[2-(trifluoromethyl)phenyl]methyl]-N′-[[5-(trifluoromethyl)-2-pyridyl]methyl]oxamide]",< 100,C (IC50 ratio of less than 15 fold)
5 to 50,< 5,< 75,"CCN(C(=O)C(=O)Nc1cnc(N)c2cn[nH]c12)[C@H](C)c1ccc(C(F)(F)F)cc1C [Compound 70, (R)—N^1-(4-amino-1H-pyrazolo[4,3-c]pyridin-7-yl)-N^2-ethyl-N^2-(1-(2-methyl-4-(trifluoromethyl)phenyl)ethyl)oxalamide]",< 100,C (IC50 ratio of less than 15 fold)
> 50,< 5,75 to 125,"Nc1ncc(NC(=O)C(=O)N(Cc2ccccc2)CC2CCCCO2)c2[nH]ncc12 (stereo not drawn) [Compound 148, N-(4-amino-1H-pyrazolo[4,3-c]pyridin-7-yl)-N′-benzyl-N′-(tetrahydropyran-2-ylmethyl)oxamide]",100 to 1000,A (IC50 ratio greater than or equal to 30 fold)
> 50,< 5,75 to 125,Nc1ncc(NC(=O)C(=O)N(Cc2ccc(C(F)(F)F)cc2)C2CCC2)c2[nH]ncc12 [Compound 118],< 100,B (IC50 ratio greater than or equal to 15 fold but lower than 30 fold)
> 50,5 to 50,75 to 125,"NC(=O)c1cncc(NC(=O)C(=O)N(Cc2ccc(C(F)(F)F)cn2)[C@@H]2CCC[C@H]2OC(F)F)c1 [Compound 22, N1-(5-carbamoylpyridin-3-yl)-N^2-((1R,2R)-2-(difluoromethoxy)cyclopentyl)-N^2-((5-(trifluoromethyl)pyridin-2-yl)methyl)oxalamide]",100 to 1000,A (IC50 ratio greater than or equal to 30 fold)
5 to 50,< 5,< 75,"CCN(Cc1ccc(C(F)(F)F)cc1F)C(=O)C(=O)Nc1cnc(N)c2cn[nH]c12 [Compound 72, N-(4-amino-2H-pyrazolo[4,3-c]pyridin-7-yl)-N′-ethyl-N′-[[2-fluoro-4-(trifluoromethyl)phenyl]methyl]oxamide]",< 100,A (IC50 ratio greater than or equal to 30 fold)
> 50,< 5,< 75,"CCN(Cc1ccc(C(F)(F)C(F)(F)F)cc1F)C(=O)C(=O)Nc1cnc(N)c2cn[nH]c12 [Compound 189, N-(4-Amino-1H-pyrazolo[4,3-c]pyridin-7-yl)-N′-ethyl-N′-[[2-fluoro-4-(1,1,2,2,2-pentafluoroethyl)phenyl]methyl]oxamide]",< 100,B (IC50 ratio greater than or equal to 15 fold but lower than 30 fold)
> 50,5 to 50,< 75,"CCN(Cc1ccc(C(F)(F)F)cn1)C(=O)C(=O)Nc1cnc(N)c2cn[nH]c12 [Compound 11, N-(4-amino-1H-pyrazolo[4,3-c]pyridin-7-yl)-N′-ethyl-N′-[[5-(trifluoromethyl)-2-pyridyl]methyl]oxamide]",< 100,A (IC50 ratio greater than or equal to 30 fold)
> 50,5 to 50,> 125,"C[C@@H](c1ccc(C(F)(F)C(F)(F)F)cc1)N(C)C(=O)C(=O)Nc1cnc(N)c2cn[nH]c12 [Compound 131, N-(4-amino-1H-pyrazolo[4,3-c]pyridin-7-yl)-N′-methyl-N′—[(1S)-1-[4-(1,1,2,2,2-pentafluoroethyl)phenyl]ethyl]oxamide]",< 100,A (IC50 ratio greater than or equal to 30 fold)
> 50,< 5,< 75,"CC(c1ccc(C(F)(F)F)cn1)N(C)C(=O)C(=O)Nc1cnc(N)c2cn[nH]c12 (racemic) [Compound 178, N-(4-amino-1H-pyrazolo[4,3-c]pyridin-7-yl)-N′-methyl-N′-[1-[5-(trifluoromethyl)-2-pyridyl]ethyl]oxamide]",100 to 1000,A (IC50 ratio greater than or equal to 30 fold)
> 50,5 to 50,> 125,"O=C(Nc1ccn2ccnc2c1)C(=O)N(Cc1ccc(C(F)(F)F)cn1)[C@@H]1CCc2ccccc21 [Compound 15, (R)—N^1-(2,3-dihydro-1H-inden-1-yl)-N^2-(imidazo[1,2-a]pyridin-7-yl)-N^1-((5-(trifluoromethyl)pyridin-2-yl)methyl)oxalamide]",100 to 1000,A (IC50 ratio greater than or equal to 30 fold)
